Source: PubChem BioAssay (NCI)
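Each compound was tested at five concentrations against cells in 96-well plates for 48 hours. TGI denotes the concentration required for complete inhibition of growth.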

Legend:
Experiment in all cases: NCI tumour cell line growth inhibition, 48 h
KM12 colon = tested on: KM12 colon
SK-MEL-2 melanoma = tested on: SK-MEL-2 melanoma
IGROV1 ovarian = tested on: IGROV1 ovarian
MOLT-4 leukemia = tested on: MOLT-4 leukemia
A549 NSCLC = tested on: A549 NSCLC
HOP-18 NSCLC = tested on: HOP-18 NSCLC
COLO 205 colon = tested on: COLO 205 colon
NCI/ADR-RES ovarian = tested on: NCI/ADR-RES ovarian
UACC-62 melanoma = tested on: UACC-62 melanoma
UO-31 renal = tested on: UO-31 renal
OVCAR-4 ovarian = tested on: OVCAR-4 ovarian
NCI-H23 lung = tested on: NCI-H23 lung
HCT-15 colon = tested on: HCT-15 colon
SN12C renal = tested on: SN12C renal
P388/ADR leukemia = tested on: P388/ADR leukemia
K-562 leukemia = tested on: K-562 leukemia
U251 CNS = tested on: U251 CNS
NCI-H226 lung = tested on: NCI-H226 lung
HCC-2998 colon = tested on: HCC-2998 colon
CCRF-CEM leukemia = tested on: CCRF-CEM leukemia
UACC-257 melanoma = tested on: UACC-257 melanoma
CAKI-1 renal = tested on: CAKI-1 renal
XF 498 CNS = tested on: XF 498 CNS
NCI-H460 lung = tested on: NCI-H460 lung
HCT-116 colon = tested on: HCT-116 colon
HOP-62 NSCLC = tested on: HOP-62 NSCLC
SK-MEL-28 melanoma = tested on: SK-MEL-28 melanoma
SF-295 CNS = tested on: SF-295 CNS
RPMI-8226 leukemia = tested on: RPMI-8226 leukemia
MALME-3M melanoma = tested on: MALME-3M melanoma
OVCAR-8 ovarian = tested on: OVCAR-8 ovarian
SNB-78 CNS = tested on: SNB-78 CNS
SNB-19 CNS = tested on: SNB-19 CNS
SK-MEL-5 melanoma = tested on: SK-MEL-5 melanoma
P388 leukemia = tested on: P388 leukemia
SK-OV-3 ovarian = tested on: SK-OV-3 ovarian
RXF 393 renal = tested on: RXF 393 renal
DLD-1 colon = tested on: DLD-1 colon
MCF7 breast = tested on: MCF7 breast
LOX IMVI melanoma = tested on: LOX IMVI melanoma
SF-268 CNS = tested on: SF-268 CNS
SF-539 CNS = tested on: SF-539 CNS
NCI-H522 lung = tested on: NCI-H522 lung
DMS 114 small cell lung = tested on: DMS 114 small cell lung
HL-60(TB) leukemia = tested on: HL-60(TB) leukemia
OVCAR-3 ovarian = tested on: OVCAR-3 ovarian
HOP-92 NSCLC = tested on: HOP-92 NSCLC
SNB-75 CNS = tested on: SNB-75 CNS
KM20L2 colon = tested on: KM20L2 colon
OVCAR-5 ovarian = tested on: OVCAR-5 ovarian
EKVX NSCLC = tested on: EKVX NSCLC
SN12K1 renal = tested on: SN12K1 renal
A498 renal = tested on: A498 renal
HT29 colon = tested on: HT29 colon
SW-620 colon = tested on: SW-620 colon
DMS 273 small cell lung = tested on: DMS 273 small cell lung
LXFL 529 NSCLC = tested on: LXFL 529 NSCLC
ACHN renal = tested on: ACHN renal
786-0 renal = tested on: 786-0 renal
M19-MEL melanoma = tested on: M19-MEL melanoma
TK-10 renal = tested on: TK-10 renal
RXF-631 renal = tested on: RXF-631 renal
M14 melanoma = tested on: M14 melanoma
SR leukemia = tested on: SR leukemia

Measured: TGI

C/C(=N\NS(=O)(=O)c1ccccc1)c1ccccc1
not listed: LXFL 529 NSCLC | ACHN renal | 786-0 renal | M19-MEL melanoma | TK-10 renal | RXF-631 renal | M14 melanoma | SR leukemia
> 100 µM: all other assays above

C=C=C(CC)C(C(=O)OC)N(CC)CC (stereo not given)
not listed: SK-MEL-2 melanoma | NCI/ADR-RES ovarian | HCT-15 colon | P388/ADR leukemia | HCC-2998 colon | P388 leukemia | MCF7 breast | OVCAR-5 ovarian | SN12K1 renal | DMS 273 small cell lung
> 100 µM: all other assays above
